One data set deals with T1, CCR3 (Homo sapiens, UniProt P51677).
T1 sequence (P51677 1-355): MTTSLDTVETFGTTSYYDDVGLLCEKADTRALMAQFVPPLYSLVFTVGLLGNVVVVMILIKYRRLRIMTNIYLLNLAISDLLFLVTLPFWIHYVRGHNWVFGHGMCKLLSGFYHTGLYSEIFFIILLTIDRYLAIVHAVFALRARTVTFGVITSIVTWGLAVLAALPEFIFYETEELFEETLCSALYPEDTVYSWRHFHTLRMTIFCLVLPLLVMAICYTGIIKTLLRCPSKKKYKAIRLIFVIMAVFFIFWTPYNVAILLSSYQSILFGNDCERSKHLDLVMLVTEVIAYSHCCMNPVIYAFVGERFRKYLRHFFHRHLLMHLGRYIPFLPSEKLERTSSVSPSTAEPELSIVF
Briefly: CCR3 receptor binding assay ([125I]-labeled human eotaxin/CCL11 displacement on cells). The note with it: 0.1 nM [125I]-labeled human eotaxin/CCL11, 2×10^5 cells/well, 60 min at room temperature. The essentials:
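Cells (2×10^5/well) incubated 60 min at room temperature with 0.1 nM [125I]-human eotaxin/CCL11 in 25 mM HEPES pH 7.6, MgCl2, CaCl2, 0.5% BSA. Bound radioactivity counted after filtration and 0.5 M NaCl washes. Non-specific binding defined with 500 nM unlabeled eotaxin.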

Molecules are shown by their SMILES. Where only a bound is given, the exact number is not on record here.

Usually melting point stands for the temperature of the solid-liquid transition. Broadly, the Ki is the dissociation constant of the complex between target and ligand, obtained from inhibition or displacement. A lower Ki goes with tighter binding. As to `O=[N+]([O-])c1ccc(Sc2cc(Cl)ccc2Cl)c(S(=O)(=O)N2CCN(S(=O)(=O)c3ccc(C(F)(F)F)cc3)CC2)c1` [Compound 205, 1-(2-(2,5-dichlorophenylthio)-5-nitrophenylsulfonyl)-4-(4-(trifluoromethyl)phenylsulfonyl)piperazine], the melting point fell in the range of 264 to 267 °C. Further, the Ki at CCR3 was above 5 µM.

For the compound `O=[N+]([O-])c1ccc(Sc2cc(Cl)ccc2Cl)c(S(=O)(=O)N2CCN(S(=O)(=O)c3ccccc3)CC2)c1` [Compound 204, 1-(2-(2,5-Dichlorophenylthio)-5-nitrophenylsulfonyl)-4-(phenylsulfonyl)-piperazine], the melting point lay within 236 to 239 °C. On CCR3, this compound displayed an inhibitory constant (Ki) above 5 µM.

Compound `O=C(c1ccco1)N1CCN(S(=O)(=O)c2cc([N+](=O)[O-])ccc2Sc2cc(Cl)ccc2Cl)CC1` [Compound 166, (4-(2-(2,5-Dichlorophenylthio)-5-nitrophenylsulfonyl)piperazin-1-yl)(furan-2-yl)methanone] gave a melting point of 199 to 202 °C.

On to `CN(C)S(=O)(=O)N1CCN(S(=O)(=O)c2cc([N+](=O)[O-])ccc2Sc2cc(Cl)ccc2Cl)CC1` [Compound 203, 4-(2-(2,5-Dichlorophenylthio)-5-nitrophenylsulfonyl)-N,N-dimethyl-piperazine-1-sulfonamide], for which the melting point is 231 to 234 °C. The inhibition constant (Ki) at CCR3 is above 5 µM.

In the case of `Cc1ccc(C)c(Sc2ccc([N+](=O)[O-])cc2S(=O)(=O)N2CCN(C(=O)c3ccccc3)CC2)c1` [Compound 172, (4-(2-(2,5-Dimethylphenylthio)-5-nitrophenylsulfonyl)piperazin-1-yl)(phenyl)methanone], the melting point was 190 to 193 °C. On CCR3, this compound returned a Ki above 5 µM.

Consider `O=C(c1ccccc1)N1CCN(S(=O)(=O)c2cc([N+](=O)[O-])ccc2Oc2cc(Cl)ccc2Cl)CC1` [Compound 182, (4-(2-(2,5-Dichlorophenoxy)-5-nitrophenylsulfonyl)piperazin-1-yl)(phenyl)methanone], for which the melting point was 206 to 209 °C. At CCR3, the Ki was above 5 µM.

As to `COc1ccc(NC(=O)N2CCN(S(=O)(=O)c3cc(C#N)ccc3Oc3cc(C)cc(C)c3)CC2)cc1` [Compound 118], the Ki on CCR3 is above 5 µM.

For `O=C(CCCCl)N1CCN(S(=O)(=O)c2cc([N+](=O)[O-])ccc2Sc2cc(Cl)ccc2Cl)CC1` [Compound 160, 4-Chloro-1-(4-(2-(2,5-dichlorophenylthio)-5-nitrophenylsulfonyl)piperazin-1-yl)butan-1-one], the Ki on CCR3 is above 5 µM.

Compound `N#Cc1ccc(Oc2cc(Cl)cc(Cl)c2)c(S(=O)(=O)N2CCN(C(=S)Nc3ccccc3)CC2)c1` [Compound 144] showed a Ki on CCR3 of at most 0.05 µM.

For the compound `CC(C)CC(=O)N1CCN(S(=O)(=O)c2cc([N+](=O)[O-])ccc2Sc2cc(Cl)ccc2Cl)CC1` [Compound 152, 1-(4-(2-(2,5-Dichlorophenylthio)-5-nitrophenylsulfonyl)piperazin-1-yl)-3-methylbutan-1-one], at CCR3, the Ki is above 5 µM.

`N#Cc1ccc(Oc2cc(Cl)cc(Cl)c2)c(S(=O)(=O)N2CCN(C(=O)CCCCl)CC2)c1` [Compound 141] came in with a Ki on CCR3 of at most 0.05 µM.

In the case of `Cc1cc(C)cc(Oc2ccc(C#N)cc2S(=O)(=O)N2CCN(C(=O)CC(C)C)CC2)c1` [Compound 66, 4-(3,5-Dimethylphenoxy)-3-(4-(3-methylbutanoyl)piperazin-1-ylsulfonyl)benzonitrile], the Ki on CCR3 is above 5 µM.

On to `Cc1cc(C)cc(Oc2ccc(C#N)cc2S(=O)(=O)N2CCN(C(=S)NC(C)C)CC2)c1` [Compound 103], for which the Ki at CCR3 is above 5 µM.

As for `CS(=O)(=O)N1CCN(S(=O)(=O)c2cc([N+](=O)[O-])ccc2Sc2cc(Cl)ccc2Cl)CC1` [Compound 202, 1-(2-(2,5-Dichlorophenylthio)-5-nitrophenylsulfonyl)-4-(methylsulfonyl)-piperazine], the melting point fell in the range of 277 to 281 °C. On CCR3, the inhibition constant Ki is above 5 µM.

As to `O=C(c1ccccc1)N1CCN(S(=O)(=O)c2cc([N+](=O)[O-])ccc2Sc2cc(Cl)ccc2Cl)CC1` [Compound 163, (4-(2-(2,5-Dichlorophenylthio)-5-nitrophenylsulfonyl)piperazin-1-yl)(phenyl)methanone], on CCR3, the Ki is above 5 µM.

On to `N#Cc1ccc(Oc2cc(Cl)cc(Cl)c2)c(S(=O)(=O)N2CCN(C(=O)OCCCCCl)CC2)c1` [Compound 158], for which, on CCR3, the Ki was above 5 µM.

`CC(=O)N1CCN(S(=O)(=O)c2cc(C#N)ccc2Oc2cc(Cl)cc(Cl)c2)CC1` [Compound 109] returned a Ki on CCR3 of at most 0.05 µM.

At CCR3, `CC(C)NC(=O)N1CCN(S(=O)(=O)c2cc(C#N)ccc2Oc2cc(Cl)cc(Cl)c2)CC1` [Compound 80, 4-(5-Cyano-2-(3,5-dichlorophenoxy)phenylsulfonyl)-N-isopropylpiperazine-1-carboxamide] came in with a Ki of 0.5 to 5 µM.

Consider `Cc1ccccc1C(=O)N1CCN(S(=O)(=O)c2cc(C#N)ccc2Sc2cc(Cl)cc(Cl)c2)CC1` [Compound 106], for which, on CCR3, the Ki was above 5 µM.

These data come from patent US8658642B2 (Axikin Pharmaceuticals, Inc., priority 2009, dated 2014).
